Experimental data reported in patent publication US9139585B2 (Merck Sharp & Dohme Corp., priority 2011, dated 2015).
Read-outs that look alike come from different tables or passages of the source.

Legend:
Kir1.1 (ROMK1) = Kir1.1 (ROMK1) (Homo sapiens (Human), UniProt P48048); assay: Electrophysiology Assay (whole cell voltage clamp, IonWorks Quattro); type: cell-based; settings: read-out: EP Assay IC50
Description: Several assays may be used to measure functional inhibition of the ROMK channel by compounds of the instant invention. One assay that can be used is an electrophysiology assay that measures the electrical current that is generated as potassium permeates through the channel.
Block of Kir1.1 (ROMK1) currents was examined by whole cell voltage clamp (Hamill et. al. Pfluegers Archives 391:85-100 (1981)) using the IonWorks® Quattro automated electrophysiology platform (Molecular Devices, Sunnyvale, Calif.). Chinese hamster ovary cells stably expressing Kir1.1 channels were maintained in T-75 flasks in cell culture media in a humidified 10% CO2 incubator at 37° C. Prior to an experiment, Kir1.1 expression was induced by overnight incubation with 1 mM sodium butyrate. On the day of the experiment, cells were dissociated with 2.5 ml of Versene™ (Invitrogen 15040-066) for approximately 6 minutes at 37° C. and suspended in 10 ml of bath solution containing (in mM): 150 NaCl, 10 KCl, 2.7 CaCl2, 0.5 MgCl2, 5 HEPES, pH 7.4. After centrifugation, the cell pellet was resuspended in approximately 4.0 ml of bath solution and placed in the IonWorks® instrument. The intracellular solution consisted of (in mM): 80 K gluconate, 40 KCl, 20 KF, 3.2 MgCl2, 3 EGTA, 5 Hepes, pH 7.4. Electrical access to the cytoplasm was achieved by perforation in 0.13 mg/ml amphotericin B for 4 minutes. Amphotericin B (Sigma A-4888) was prepared as a 40 mg/ml solution in DMSO.
Voltage protocols and current recordings were performed using the IonWorks® HT software/hardware system. Currents were sampled at 1 kHz. No correction for liquid junction potentials was used. The test pulse, consisting of a 100 ms step to 0 mV from a holding potential of −70 mV, followed by a 100 ms voltage ramp from −70 mV to +70 mV, was applied before and after a 6 minutes compound incubation period. Test compounds were prepared by diluting DMSO stock solutions into the bath solution at 3× the final concentration and placed in the instrument in 96-well polypropylene plates. Current amplitudes were measured using the IonWorks® software. To assess compound potency, the fractional block during the voltage step to 0 mV was calculated in Microsoft® Excel (Microsoft, Redmond, Calif.), and dose-response curves were fitted with Igor Pro 4.0 (WaveMetrics, Lake Oswego, Oreg.).

hROMK (hKir1.1) = hROMK (hKir1.1) (Homo sapiens (Human), UniProt P48048); assay: Thallium Flux Assay (ROMK channel functional thallium flux, FLIPR-Tetra); type: cell-based
Description: Another ROMK functional assay makes use of the ability of thallium to permeate through open ROMK channels and increase the fluorescence of a dye previously loaded into the cells. Under control conditions, cells loaded with dye and exposed to thallium-containing medium display a time-dependent increase in fluorescence, the rate of which depends on number of functional channels. When cells are incubated in the presence of a channel inhibitor, the increase in fluorescence is attenuated in a concentration-dependent manner, and IC50 values of inhibition by compounds can be accurately determined. This assay has been established with cell lines expressing either human, or rat ROMK channels, and operates in 384-well format.
HEK293 cells stably expressing hROMK (hKir1.1) were grown at 37° C. in a 10% CO2 humidified incubator in complete growth media: Dulbecco's Modified Eagle Medium supplemented with non-essential amino acids, Penicillin/Streptomycin/Glutamine, G418 and FBS. At >80% confluency, the media was aspirated from the flask and the sample was rinsed with 10 ml Calcium/Magnesium-free PBS. […] To dislodge the cell, the side of the flask was gently banged with a hand. The cells were triturated completely and then transferred to 25 ml complete media. The sample was then centrifuged at 1,500 rpm for 6 minutes, followed by resuspension in complete growth media and then cell concentration was determined. […] Under ideal growth conditions and appropriate tissue culture practices, this cell line is stable for 40-45 passages.
FluxOR Kit Components (Invitrogen F10017)
• FluxOR™ Reagent (Component A) • FluxOR™ Assay Buffer (Component B)—10× Concentrate • PowerLoad™ Concentrate (Component C)—100× Concentrate • Probenecid (Component D)—Lyophilized sample is kept at −20° C. Water soluble, 100× after solubilization in 1 ml water. […] Store at 4° C. • Thallium sulfate (Tl2SO4) Concentrate (Component G)—50 mM in water. Store at 4° C. • DMSO (dimethyl sulfoxide, Component H)—1 ml (100%) Reagent Preparation— FluxOR Working Solutions • 1000× FluxOR™ Reagent: Reconstitute a vial of component A in 100 μl DMSO; Mix well; Store 10 μl aliquots at −20° C. • 1× FluxOR™ Assay Buffer: Dilute Component B 10-fold with water; Adjust pH to 7.4 with Hepes/NaOH; Filter and store at 4° C. • Probenecid/Assay Buffer: 100 ml of 1× FluxOR™ Assay Buffer; 1 ml of reconstituted component D; Store at 4° C. • Loading Buffer (per microplate): 10 μl 1000× FluxOR™ Reagent; 100 μl component C; 10 ml Probenecid/Assay Buffer • Compound Buffer (per microplate): 20 ml Probenecid/Assay Buffer; 0.3 mM ouabain (10 mM ouabain in water can be stored in amber bottle/aluminum foil at room temperature);
Test compound • 1× FluxOR™ Chloride-Free Buffer: Prepare 1× working solution in water. Can be stored at room temperature • Stimulant Buffer (prepared at 5× final concentration in 1× FluxOR™ Chloride-Free Buffer): 7.5 mM Thallium sulfate and 0.75 mM Potassium sulfate (to give a final assay concentration of 3 mM Thallium/0.3 mM Potassium). Store at 4° C. when not in use. If kept sterile, this solution is good for months. Assay Protocol—
The ROMK channel functional thallium flux assay is performed in 384 wells, using the FLIPR-Tetra instrument. HEK-hKir1.1 cells are seeded in Poly-D-Lysine microplates and kept in a 37° C.-10% CO2 incubator overnight. On the day of the experiment, the growth media is replaced with the FluxOR™ reagent loading buffer and incubated, protected from light, at ambient temperature (23-25° C.) for 90 min. The loading buffer is replaced with assay buffer±test compound followed by 30 min incubation at ambient temperature, where the Thallium/Potassium stimulant is added to the microplate.
• 1. Seed HEK-hKir1.1 cells (50 μl at 20,000 cells/well) in 384-well PDL coated Microplates • 2. Allow cells to adhere overnight in humidified 37° C./10% CO2 incubator • 3. Completely remove cell growth media from microplate and replace with 25 μl loading buffer • 4.

[1] = Chinese hamster ovary cells stably expressing Kir1.1, block during voltage step to 0 mV
[2] = HEK293 cells stably expressing hROMK (hKir1.1), read-out: Thallium Flux Assay IC50

Sequence of Kir1.1 (ROMK1) (P48048 whole entry, species assumed): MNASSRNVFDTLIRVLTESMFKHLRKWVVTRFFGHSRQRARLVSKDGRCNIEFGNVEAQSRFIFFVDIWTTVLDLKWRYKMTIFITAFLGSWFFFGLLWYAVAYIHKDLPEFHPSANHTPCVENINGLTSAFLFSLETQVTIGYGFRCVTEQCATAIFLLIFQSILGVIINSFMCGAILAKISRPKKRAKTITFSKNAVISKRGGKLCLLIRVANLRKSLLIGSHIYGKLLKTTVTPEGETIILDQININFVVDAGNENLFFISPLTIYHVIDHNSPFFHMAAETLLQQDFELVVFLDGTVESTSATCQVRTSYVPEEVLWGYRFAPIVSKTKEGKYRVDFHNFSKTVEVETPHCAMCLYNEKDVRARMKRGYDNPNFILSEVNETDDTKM
Sequence of hROMK (hKir1.1) (P48048 whole entry): as the sequence (P48048 whole entry, species assumed) above

Row | Structure (SMILES) | IC50 (Kir1.1 (ROMK1)) | IC50 (hROMK (hKir1.1); Thallium Flux Assay IC50) | IC50 (hROMK (hKir1.1); read-out: Thallium Flux Assay IC50) | IC50 (Kir1.1 (ROMK1); [1]) | IC50 (hROMK (hKir1.1); [2])
1 | Cc1c([C@@H](O)CN2C3COCC2CN(CCc2ccc4c(c2)C[C@H](C)OC4=O)C3)ccc2c1COC2=O [Example 22, (S)-6-(2-(9-((R)-2-Hydroxy-2-(4-methyl-1-oxo-1,3-dihydroisobenzofuran-5-yl)ethyl)-3-oxa-7,9-diazabicyclo[3.3.1]nonan-7-yl)ethyl)-3-methylisochroman-1-one] | 32 nM | 42.7 nM |  |  | 
2 | Cc1c([C@@H](O)CN2C3CCC2C2CCC3N2C(=O)c2ccc(-n3cnnn3)nc2)ccc2c1COC2=O [Example 13] | 130 nM | 985 nM |  |  | 
3 | Cc1c([C@@H](O)CN2CCN(CC(O)c3ccc(-n4cnnn4)nc3)CC2)ccc2c1COC2=O (single isomer, unassigned) [Example 34A] | 35 nM |  | 296 nM |  | 
4 | Cc1nc(-n2cnnn2)ccc1[C@@H](O)CN1CCN(C[C@H](O)c2ccc3c(c2C)COC3=O)CC1 (single isomer, unassigned) [Example 36B] |  |  |  | 24 nM | 171 nM
5 | Cc1cc(-n2cnnn2)ncc1[C@@H](O)CN1CCN(C[C@H](O)c2ccc3c(c2C)COC3=O)CC1 (single isomer, unassigned) [Example 35B] |  |  |  | 32.5 nM | 278 nM
6 | COc1cc(C(O)CN2CCN(CC(O)c3ccc4c(c3)C[C@H](C)OC4=O)CC2)ncc1C#N (single isomer, unassigned) [Example 44A] |  |  |  | 151 nM | 704 nM
7 | Cc1c([C@@H](O)CN2CC3COCC(C2)N3CC(O)c2ccc(C#N)cn2)ccc2c1COC2=O (stereo partly drawn) [Example 20, 6-(1-Hydroxy-2-(7-((R)-2-hydroxy-2-(4-methyl-1-oxo-1,3-dihydroisobenzofuran-5-yl)ethyl)-3-oxa-7,9 diazabicyclo[3.3.1]nonan-9-yl)ethyl)nicotinonitrile] |  |  |  | 29.5 nM | 78 nM
8 | Cc1c([C@@H](O)CN2C3COCC2CN(CC(O)c2ccc4c(c2)C[C@H](C)OC4=O)C3)ccc2c1COC2=O (single isomer, unassigned) [Example 23A] |  | 461 nM |  | 2460 nM | 
9 | Cc1c([C@@H](O)CN2CCN(C[C@@H](O)c3ccc4c(c3)CCS4(=O)=O)CC2)ccc2c1COC2=O (single isomer, unassigned) [Example 43A] |  |  |  | 95 nM | 52.3 nM
